Results taken from US7208154B2, “Methods and compositions for the treatment of MHC-associated conditions” (Regents of the University of Michigan, priority 2002, dated 2007).

Legend:
[1] = test system: Human fibroblastoid M1 cells; assay: NO production (fluorometric nitrate/nitrite DAN assay) in M1 cells stimulated with bead-bound peptide; assay type: cell-based; settings: for Block of NO induction by shared epitope-expressing peptide 65–79*0401: then bead-bound 65–79*0401 for 1–30 min
Protocol: DKCLA [SEQ ID NO: 16] binds to calreticulin, and inhibits binding of shared epitope-expressing peptides which trigger pro-oxidative signaling (FIG. 9). In follow up experiments the functional activity of DKCLA [SEQ ID NO: 16] was determined by measuring its effect on NO production by shared epitope-expressing peptides (i.e. 65–79*0401) and a control peptide, 65–79*0402. Human fibroblastoid M1 cells were pre-incubated overnight with or without 50 µg/ml of DKCLA. Subsequently culture medium was changed to NO assay buffer (20 mM Tris, pH7.6, 100 mM NaCl, 0.1 mM EDTA), and cells were stimulated for 1–30 min with Sepharose bead-bound peptide 65–79*0401 or control peptide 65–79*0402. At different time points, cultures were collected and NO levels were measured. Briefly, supernatants were collected and spun down to remove cell debris. Nitrate in the supernatant were first transformed to nitrite by incubation with nitrate reductase for 60 min in room temperature. Then, DAN was added to yield fluorescent 2,3-naphthotriazole. Fluorescence was measured with a Perkin-Elmer Fusion™ Universal Microplate Analyzer, using a wavelength excitation of 375 nm and an emission wavelength of 415 nm.
The nitrite and nitrate assay was a modified method from fluorometric determination of nitrite [Thomas Pet al. Anal. Biochem., 214:11–16, (1993), Miles AM et al. Methods 7: 40–47, (1995)]. Cell culture medium was changed to NO assay buffer (20mM Tris, pH7.6, 100 mM NaCl, 0.1 mM EDTA) and was treated by bead bound peptides. After treatment, supernatant was spun down to remove cell debris. Nitrate in the supernatant was first transformed to nitrite by incubation with Nitrate Reductase for 60min in room temperature. Then 2,3-diaminonaphthalene (DAN) was added to yield fluorescent 2,3-naphthotriazole. Fluorescence was measured by a FUSION™ Universal Microplate Analyzer with excitation at 375 nm and emission at 415 nm.

calreticulin [2] = target: T1, calreticulin (Homo sapiens, UniProt P27797); assay: Surface plasmon resonance, calreticulin immobilized on CM5 chip, pentapeptide binding; set-up: GST (cleaved yes); made in house; host or cells: E. coli (strain provided by Dr. Michalak); settings: Biacore, 25° C., peptides 25–180 μM
T1 sequence (P27797 18-417): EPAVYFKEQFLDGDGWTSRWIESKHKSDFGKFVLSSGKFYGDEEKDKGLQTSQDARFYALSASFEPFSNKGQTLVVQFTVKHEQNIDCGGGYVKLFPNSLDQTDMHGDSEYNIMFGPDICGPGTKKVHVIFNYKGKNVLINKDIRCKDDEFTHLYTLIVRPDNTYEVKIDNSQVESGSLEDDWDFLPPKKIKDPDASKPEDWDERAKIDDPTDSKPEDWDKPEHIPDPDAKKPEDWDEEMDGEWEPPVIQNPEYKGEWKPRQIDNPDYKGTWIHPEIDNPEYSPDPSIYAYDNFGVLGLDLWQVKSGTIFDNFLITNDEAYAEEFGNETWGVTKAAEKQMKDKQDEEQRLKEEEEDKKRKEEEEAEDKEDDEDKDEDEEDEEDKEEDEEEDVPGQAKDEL
Protocol: The E. coli strain expressing GST fusion Calreticulin was kindly provided by Dr. Michalak [Baksh S et al. Protein Expr Purif., 3, 322–331, (1992)]. GST-Calreticulin was purified according to the manual of GST Gene Fusion System from Pharmacia. Factor Xa was used to liberate GST from calreticulin. In an additional step the column was treated with mono-Q to achieve >90% purity of calreticulin (MW=60 kD).
Prior to use, biosensor chips CM5 were docked into a Biacore® 2000 and preconditioned in water at 100 μl/min by applying two consecutive 20-μl pulses of 50 mM NaOH, then 10 mM HCl, and finally 0.1% SDS. Calreticulin was immobilized on CM5 surface by standard primary amine coupling [Lofas S et al. Biosensors & Bioelectronics, 10: 813–822, (1995), Johnsson B et al. J Mol Recognit., 8: 125–131, (1995), Karlsson R et al. J. Immunol. Methods, 200:121–133. (1997)]. Immobilizations were conducted at 25° C. in HBS-EP (10 mM HEPES, pH7.4, 150 mM NaCl, 1 mM EDTA, 0.005% Surfactant P-20), with a flow of 10 μl/min. […]
Shared epitope-expressing peptides potently bind to, and trigger, signaling through calreticulin. […] However, when calreticulin binding activities of the panel of pentapeptides were determined, one conspicuous exception was discovered, that is DKCLA FIG. 15 peptide #7 (Q70D).

calreticulin [3] = target: T1, calreticulin; assay: Competitive inhibition of shared epitope peptide binding to calreticulin (Biacore); set-up: GST (cleaved yes); made in house; host or cells: E. coli (strain provided by Dr. Michalak)
Protocol: Prior to use, biosensor chips CM5 were docked into a Biacore® 2000 and preconditioned in water at 100 μl/min by applying two consecutive 20-μl pulses of 50 mM NaOH, then 10 mM HCl, and finally 0.1% SDS. Calreticulin was immobilized on CM5 surface by standard primary amine coupling [Lofas S et al. Biosensors & Bioelectronics, 10: 813–822, (1995), Johnsson B et al. J Mol Recognit., 8: 125–131, (1995), Karlsson R et al. J. Immunol. Methods, 200:121–133. (1997)]. Immobilizations were conducted at 25° C. in HBS-EP (10 mM HEPES, pH7.4, 150 mM NaCl, 1 mM EDTA, 0.005% Surfactant P-20), with a flow of 10 μl/min. The CM5 surface was activated by 7 min injection of 200 mM EDC/50 mM NHS to prepare a high-capacity surface, with manual injection of 100 μg/ml calreticulin until 5500 RU level was approached. Then 100 μl of 1M ethanolamine was used to block remaining activated group.
Calreticulin and peptide binding were performed at 25° C. in binding buffer (10 mM HEPES, pH8.0, 50 mM KCl, 0.5 mM CaCl2, 1% Triton-X100), with a flow rate of 10 μl/min. Peptides in the analyte ranged in concentration from 25–180 μM. Binding assays were repeated at least 3 times. Kinetic analysis was performed using Kinetic separate ka/kd fitting in BIA evaluation 3.0 software.
In order to determine whether DKCLA [SEQ ID NO: 16] and shared epitope-expressing peptides compete for the same binding site on calreticulin, competitive binding studies were performed in which the calreticulin binding activity of 14-mer shared epitope-expressing peptides was determined in the presence or absence of different pentapeptides. […] Thus, a Q70D substitution produces a shared epitope-antagonistic effect.

[4] = M1 cells pre-incubated overnight with 50 µg/ml

Row | Substance | Effect on baseline NO levels [1, 4] | Block of NO induction by shared epitope-expressing peptide 65–79*0401 [1, 4] | Impact on NO levels with control peptide 65–79*0402 ([1]; bead-bound control peptide 65–79*0402) | Binding to immobilized calreticulin (calreticulin [2]) | Block of 65–78*0401 binding to calreticulin (calreticulin [3]; 14-mer peptide 65–78*0401) | Block of 65–78*0404 binding to calreticulin (calreticulin [3]; 14-mer peptide 65–78*0404) | IC50, inhibition of 65–78*0401 binding to calreticulin (calreticulin [3]; dose response analysis, FIG. 16C) | IC50, inhibition of 65–78*0404 binding to calreticulin (calreticulin [3]; dose response analysis, FIG. 16D) | Inhibition of 65–79*0401 binding to calreticulin (calreticulin [3]; Biacore assay, control experiment under identical conditions)
1 | DKCLA [Asp Lys Cys Leu Ala] | no measureable effect | blocked NO induction | no impact | bind very strongly to calreticulin | effectively and specifically blocked binding | effectively and specifically blocked binding | low-υM range | low-υM range | –
2 | Gln Lys Arg Ala Glu (QKRAE) [pentapeptide with A74E substitution] | – | did not inhibit 65–79*0401-triggered NO production | – | did not bind to calreticulin | – | – | – | – | did not inhibit 65–79*0401 binding to calreticulin
